Data from ChEMBL document CHEMBL1201862, “PubChem BioAssay data set” (2004).
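Protocol summary: plate cells (96-well), add compound at 5 concentrations, incubate 48 h, interpolate endpoints linearly. At the GI50, growth is halved.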 Activity calls are given as the source filed them. Rule as the data show it: active = GI50 up to about 1.1 µM and inactive = higher.

Tests used:
Test in all cases: NCI-60 cell line screen, 48 h
HT-29 = test system: HT-29
DMS-273 = test system: DMS-273
SF-268 = test system: SF-268
DLD-1 = test system: DLD-1
786-0 = test system: 786-0
SK-MEL-28 = test system: SK-MEL-28
SK-MEL-2 = test system: SK-MEL-2
OVCAR-8 = test system: OVCAR-8
NCI-H522 = test system: NCI-H522
HCT-116 = test system: HCT-116
K562 = test system: K562
SW-620 = test system: SW-620
CCRF-CEM = test system: CCRF-CEM
UO-31 = test system: UO-31
MOLT-4 = test system: MOLT-4
SNB-19 = test system: SNB-19
M14 = test system: M14
SNB-78 = test system: SNB-78
OVCAR-5 = test system: OVCAR-5
HCT-15 = test system: HCT-15
NCI-H460 = test system: NCI-H460
KM12 = test system: KM12
SF-295 = test system: SF-295
A498 = test system: A498
HL-60 = test system: HL-60
COLO 205 = test system: COLO 205
TK-10 = test system: TK-10
RXF 631 = test system: RXF 631
U-251 = test system: U-251
HOP-18 = test system: HOP-18
HOP-62 = test system: HOP-62
SNB-75 = test system: SNB-75
M19-MEL = test system: M19-MEL
EKVX = test system: EKVX
OVCAR-3 = test system: OVCAR-3
NCI-H226 = test system: NCI-H226
SR = test system: SR
OVCAR-4 = test system: OVCAR-4
ACHN = test system: ACHN
SK-OV-3 = test system: SK-OV-3
NCI-H23 = test system: NCI-H23
SF-539 = test system: SF-539
RPMI-8226 = test system: RPMI-8226
DMS-114 = test system: DMS-114
A549 = test system: A549
SK-MEL-5 = test system: SK-MEL-5
RXF 393 = test system: RXF 393
UACC-257 = test system: UACC-257
KM-20L2 = test system: KM-20L2
Malme-3M = test system: Malme-3M
HOP-92 = test system: HOP-92
SN12C = test system: SN12C
IGROV-1 = test system: IGROV-1
HCC 2998 = test system: HCC 2998
LOX IMVI = test system: LOX IMVI
UACC-62 = test system: UACC-62
CAKI-1 = test system: CAKI-1
LXFL 529 = test system: LXFL 529

Question: For `CC1=C(C(=O)NCc2ccccc2)C(c2ccccc2C)C(C(=O)NCc2ccccc2)=C(C)N1`, which GI50 (HT-29) is on record?
Answer: 27.2 µM (inactive)

Question: And the GI50 (DMS-273)?
Answer: 27.5 µM (inactive)

Question: And the GI50 (SF-268)?
Answer: 22.8 µM (inactive)

Question: What about the GI50 (DLD-1) of the same compound?
Answer: 20.9 µM (inactive)

Question: And the GI50 (786-0)?
Answer: 25.1 µM (inactive)

Question: What about the GI50 (SK-MEL-28) of the same compound?
Answer: 27.6 µM (inactive)

Question: And the GI50 (SK-MEL-2)?
Answer: 18.5 µM (inactive)

Question: And the GI50 (OVCAR-8)?
Answer: 17.9 µM (inactive)

Question: What about the GI50 (NCI-H522) of the same compound?
Answer: 28.4 µM (inactive)

Question: What about the GI50 (HCT-116) of the same compound?
Answer: 19 µM (inactive)

Question: And the GI50 (K562)?
Answer: 38.5 µM (inactive)

Question: What about the GI50 (SW-620) of the same compound?
Answer: 38.8 µM (inactive)

Question: And the GI50 (CCRF-CEM)?
Answer: 29.6 µM (inactive)

Question: And the GI50 (UO-31)?
Answer: 42.8 µM (inactive)

Question: And the GI50 (MOLT-4)?
Answer: 27.1 µM (inactive)

Question: What about the GI50 (SNB-19) of the same compound?
Answer: 35.6 µM (inactive)

Question: And the GI50 (M14)?
Answer: 20.4 µM (inactive)

Question: What about the GI50 (SNB-78) of the same compound?
Answer: 33.6 µM (inactive)

Question: And the GI50 (OVCAR-5)?
Answer: 35.9 µM (inactive)

Question: And the GI50 (HCT-15)?
Answer: 17.7 µM

Question: And the GI50 (NCI-H460)?
Answer: 19.5 µM (inactive)

Question: What about the GI50 (KM12) of the same compound?
Answer: 24.8 µM (inactive)

Question: And the GI50 (SF-295)?
Answer: 29.7 µM (inactive)

Question: What about the GI50 (A498) of the same compound?
Answer: 44.3 µM (inactive)

Question: What about the GI50 (HL-60) of the same compound?
Answer: 21 µM (inactive)

Question: What about the GI50 (COLO 205) of the same compound?
Answer: 38.8 µM (inactive)

Question: And the GI50 (TK-10)?
Answer: 41.7 µM (inactive)

Question: What about the GI50 (RXF 631) of the same compound?
Answer: 42.1 µM (inactive)

Question: What about the GI50 (U-251) of the same compound?
Answer: 24.5 µM (inactive)

Question: What about the GI50 (HOP-18) of the same compound?
Answer: > 53 µM (inactive)

Question: What about the GI50 (HOP-62) of the same compound?
Answer: 29.9 µM (inactive)

Question: And the GI50 (SNB-75)?
Answer: > 43.8 µM (inactive)

Question: And the GI50 (M19-MEL)?
Answer: 33 µM (inactive)

Question: What about the GI50 (EKVX) of the same compound?
Answer: 58.7 µM (inactive)

Question: And the GI50 (OVCAR-3)?
Answer: 23.5 µM (inactive)

Question: And the GI50 (NCI-H226)?
Answer: 30.7 µM (inactive)

Question: And the GI50 (SR)?
Answer: 24.5 µM (inactive)

Question: And the GI50 (OVCAR-4)?
Answer: 27.2 µM (inactive)

Question: And the GI50 (ACHN)?
Answer: 20 µM (inactive)

Question: And the GI50 (SK-OV-3)?
Answer: 91.2 µM (inactive)

Question: What about the GI50 (NCI-H23) of the same compound?
Answer: 33.1 µM (inactive)

Question: What about the GI50 (SF-539) of the same compound?
Answer: 24.6 µM (inactive)

Question: What about the GI50 (RPMI-8226) of the same compound?
Answer: 29.9 µM (inactive)

Question: And the GI50 (DMS-114)?
Answer: 29.6 µM (inactive)

Question: And the GI50 (A549)?
Answer: 49.8 µM (inactive)

Question: And the GI50 (SK-MEL-5)?
Answer: 35.5 µM (inactive)

Question: What about the GI50 (RXF 393) of the same compound?
Answer: 23.7 µM (inactive)

Question: What about the GI50 (UACC-257) of the same compound?
Answer: 10.7 µM (inactive)

Question: What about the GI50 (KM-20L2) of the same compound?
Answer: 28.4 µM (inactive)

Question: What about the GI50 (Malme-3M) of the same compound?
Answer: 72.6 µM (inactive)

Question: And the GI50 (HOP-92)?
Answer: 39 µM (inactive)

Question: And the GI50 (SN12C)?
Answer: 25.5 µM (inactive)

Question: What about the GI50 (IGROV-1) of the same compound?
Answer: 31.7 µM (inactive)

Question: What about the GI50 (HCC 2998) of the same compound?
Answer: 28.6 µM (inactive)

Question: What about the GI50 (LOX IMVI) of the same compound?
Answer: 17.7 µM (inactive)

Question: What about the GI50 (UACC-62) of the same compound?
Answer: 17.2 µM (inactive)

Question: And the GI50 (CAKI-1)?
Answer: 50.8 µM (inactive)

Question: What about the GI50 (LXFL 529) of the same compound?
Answer: 29.5 µM (inactive)
